Results published in the supplement of paper PMC11451515.

Tested on: SEM cells
Assay: cell viability relative to DMSO control; higher = less cytotoxic
Details: 48 h
Method in brief: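 Viability values are per-plate percentages of DMSO wells, with background from cell-free wells. Library compounds in DMSO were pin-dosed, in an 11-point threefold series from 47 μM to 0.79 nM, onto NOMO1 or SEM (500 cells/well) or P12-Ichikawa (1000 cells/well) leukemia cells in 1536-well plates (5 μl). Those cells had been adapted for at least four passages in each medium, and CellTiter-Glo One luminescence was read after 48 h at 37°C.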

[1] = HPLM + 10% dialyzed FBS, 0.000781 µM
[2] = HPLM + 10% dialyzed FBS, 0.00234 µM
[3] = HPLM + 10% dialyzed FBS, 0.00702 µM
[4] = HPLM + 10% dialyzed FBS, 0.0211 µM
[5] = HPLM + 10% dialyzed FBS, 0.0632 µM
[6] = HPLM + 10% dialyzed FBS, 0.19 µM
[7] = HPLM + 10% dialyzed FBS, 0.569 µM
[8] = HPLM + 10% dialyzed FBS, 1.71 µM
[9] = HPLM + 10% dialyzed FBS, 5.12 µM
[10] = HPLM + 10% dialyzed FBS, 15.4 µM
[11] = HPLM + 10% dialyzed FBS, 46.1 µM
[12] = RPMI 5 mM glucose + 10% FBS, 0.000781 µM
[13] = RPMI 5 mM glucose + 10% FBS, 0.00234 µM
[14] = RPMI 5 mM glucose + 10% FBS, 0.00702 µM
[15] = RPMI 5 mM glucose + 10% FBS, 0.0211 µM
[16] = RPMI 5 mM glucose + 10% FBS, 0.0632 µM
[17] = RPMI 5 mM glucose + 10% FBS, 0.19 µM
[18] = RPMI 5 mM glucose + 10% FBS, 0.569 µM
[19] = RPMI 5 mM glucose + 10% FBS, 1.71 µM
[20] = RPMI 5 mM glucose + 10% FBS, 5.12 µM
[21] = RPMI 5 mM glucose + 10% FBS, 15.4 µM
[22] = RPMI 5 mM glucose + 10% FBS, 46.1 µM
[23] = RPMI 5 mM glucose + 10% dialyzed FBS, 0.000781 µM
[24] = RPMI 5 mM glucose + 10% dialyzed FBS, 0.00234 µM
[25] = RPMI 5 mM glucose + 10% dialyzed FBS, 0.00702 µM
[26] = RPMI 5 mM glucose + 10% dialyzed FBS, 0.0211 µM
[27] = RPMI 5 mM glucose + 10% dialyzed FBS, 0.0632 µM
[28] = RPMI 5 mM glucose + 10% dialyzed FBS, 0.19 µM
[29] = RPMI 5 mM glucose + 10% dialyzed FBS, 0.569 µM
[30] = RPMI 5 mM glucose + 10% dialyzed FBS, 1.71 µM
[31] = RPMI 5 mM glucose + 10% dialyzed FBS, 5.12 µM
[32] = RPMI 5 mM glucose + 10% dialyzed FBS, 15.4 µM
[33] = RPMI 5 mM glucose + 10% dialyzed FBS, 46.1 µM

Row | SMILES | cell viability [1] | cell viability [2] | cell viability [3] | cell viability [4] | cell viability [5] | cell viability [6] | cell viability [7] | cell viability [8] | cell viability [9] | cell viability [10] | cell viability [11] | cell viability [12] | cell viability [13] | cell viability [14] | cell viability [15] | cell viability [16] | cell viability [17] | cell viability [18] | cell viability [19] | cell viability [20] | cell viability [21] | cell viability [22] | cell viability [23] | cell viability [24] | cell viability [25] | cell viability [26] | cell viability [27] | cell viability [28] | cell viability [29] | cell viability [30] | cell viability [31] | cell viability [32] | cell viability [33]
1 | O=C1c2c(O)cccc2[C@H]([C@@H]2O[C@H](CO)[C@@H](O)[C@H](O)[C@H]2O)c2cc(CO)cc(O)c21 | 99.7% | 39% | 110% | 105% | 112% | 111% | 116% | 108% | 112% | 116% | 108% | 89.4% | 30.7% | 92.8% | 84% | 98.2% | 96.3% | 106% | 91.3% | 93% | 93.5% | 106% | 94% | 27.4% | 92.4% | 96.7% | 102% | 101% | 114% | 109% | 112% | 90.1% | 119%
2 | C[C@H]([C@H](O)CCC(C)(C)O)[C@H]1CC[C@@]2(O)C/3=C/C(=O)[C@@H]4C[C@@H](O)[C@@H](O)C[C@]4(C)[C@H]3CC[C@]12C | 111% | 119% | 102% | 122% | 103% | 109% | 110% | 112% | 108% | 101% | 106% | 132% | 104% | 113% | 125% | 115% | 113% | 119% | 123% | 125% | 110% | 98% |  |  |  |  |  |  |  |  |  |  | 
3 | CO[C@H]1C[C@@H]2CC[C@@H](C)[C@@](O)(O2)C(=O)C(=O)N2CCCC[C@H]2C(=O)O[C@H]([C@H](C)C[C@@H]2CC[C@@H](OP(C)(C)=O)[C@H](OC)C2)CC(=O)[C@H](C)/C=C(\C)[C@@H](O)[C@@H](OC)C(=O)[C@H](C)C[C@H](C)/C=C/C=C/C=C/1C | 91% | 97.7% | 99.9% | 98.8% | 81.7% | 40.8% | 80.2% | 81.9% | 75.4% | 71.1% | 64.1% | 87.7% | 96% | 105% | 76.7% | 80.9% | 42.9% | 85.8% | 78.8% | 63.7% | 66.6% | 52.9% | 105% | 98.1% | 108% | 108% | 92.3% | 40.3% | 85.7% | 86.9% | 71.9% | 68.2% | 57.1%
4 | CN(N=O)C(=O)N[C@H]1C(O)OC(CO)[C@@H](O)[C@@H]1O (some centres not stated) | 66.7% | 75.4% | 79.1% | 74.5% | 81.8% | 74.6% | 74% | 77.2% | 89.2% | 40.3% | 37.9% | 101% | 101% | 106% | 87.8% | 106% | 76.3% | 86.5% | 108% | 119% | 48.3% | 51.6% | 63.9% | 74% | 73.7% | 63.8% | 70.4% | 55.1% | 80.9% | 78.5% | 80.8% | 32.7% | 43.3%
5 | O=C1NC(=O)[C@@H](c2cn3c4c(cccc24)CCC3)[C@@H]1c1c[nH]c2ccccc12 | 91.6% | 98.3% | 111% | 99.9% | 93.8% | 75.2% | 96.5% | 39.9% | 25.5% | 22.3% | 28.9% | 117% | 114% | 113% | 115% | 124% | 76.2% | 88% | 27.4% | 20.6% | 16.2% | 22.5% | 90.6% | 98.5% | 103% | 84.1% | 114% | 83.2% | 102% | 39.1% | 22.7% | 16.4% | 34.4%
6 | CCC[C@@H]1C[C@@H](C(=O)N[C@@H]([C@H]2O[C@H](SC)[C@H](O)[C@@H](O)[C@H]2O)[C@@H](C)O)N(C)C1.Cl | 125% | 121% | 118% | 109% | 119% | 127% | 114% | 122% | 103% | 117% | 91% | 110% | 114% | 105% | 99.3% | 120% | 110% | 130% | 111% | 111% | 111% | 97.4% | 113% | 119% | 141% | 118% | 136% | 133% | 132% | 137% | 125% | 104% | 116%
7 | O=[N+]([O-])c1cn2c(n1)OC[C@@H](OCc1ccc(OC(F)(F)F)cc1)C2 | 105% | 97.3% | 108% | 115% | 109% | 101% | 96.3% | 89% | 86.7% | 92.4% | 90.5% | 120% | 112% | 118% | 144% | 117% | 129% | 137% | 125% | 114% | 122% | 132% |  |  |  |  |  |  |  |  |  |  | 
8 | C[N]1C=NC=C1[C@@](N)(C2=CC=C(Cl)C=C2)C3=CC=C4N(C)C(=O)\C=C(\C5=CC=CC(=C5)Cl)C4=C3 | 112% | 126% | 111% | 103% | 65.5% | 53.1% | 50.7% | 48.5% | 49.2% | 39.8% | 28.6% | 105% | 116% | 109% | 101% | 72.2% | 43.9% | 51.7% | 43.7% | 40.6% | 33.9% | 13.6% | 105% | 102% | 97.9% | 108% | 98.5% | 71% | 65.9% | 62.8% | 55% | 49.7% | 22.3%
